Reference: patent US8143408B2, “N-(8-heteroaryltetrahydronaphtalene-2yl) or N-(5-heteroarylchromane-3-yl) carboxamide derivatives for the treatment of pain” (AstraZeneca AB, priority 2007, dated 2012)

The compounds below were run against T1, Nav1.7 voltage-gated sodium channel (Homo sapiens, UniProt Q15858) (assay: Whole-cell voltage clamp electrophysiology assay). Details: cells stably expressing the voltage-gated sodium channel of interest.
T1 construct: Gene(s) encoding the full-length protein of the voltage-gated sodium channel of interest are cloned and expressed; expressed in transfected cells
T1 sequence (Q15858 whole entry): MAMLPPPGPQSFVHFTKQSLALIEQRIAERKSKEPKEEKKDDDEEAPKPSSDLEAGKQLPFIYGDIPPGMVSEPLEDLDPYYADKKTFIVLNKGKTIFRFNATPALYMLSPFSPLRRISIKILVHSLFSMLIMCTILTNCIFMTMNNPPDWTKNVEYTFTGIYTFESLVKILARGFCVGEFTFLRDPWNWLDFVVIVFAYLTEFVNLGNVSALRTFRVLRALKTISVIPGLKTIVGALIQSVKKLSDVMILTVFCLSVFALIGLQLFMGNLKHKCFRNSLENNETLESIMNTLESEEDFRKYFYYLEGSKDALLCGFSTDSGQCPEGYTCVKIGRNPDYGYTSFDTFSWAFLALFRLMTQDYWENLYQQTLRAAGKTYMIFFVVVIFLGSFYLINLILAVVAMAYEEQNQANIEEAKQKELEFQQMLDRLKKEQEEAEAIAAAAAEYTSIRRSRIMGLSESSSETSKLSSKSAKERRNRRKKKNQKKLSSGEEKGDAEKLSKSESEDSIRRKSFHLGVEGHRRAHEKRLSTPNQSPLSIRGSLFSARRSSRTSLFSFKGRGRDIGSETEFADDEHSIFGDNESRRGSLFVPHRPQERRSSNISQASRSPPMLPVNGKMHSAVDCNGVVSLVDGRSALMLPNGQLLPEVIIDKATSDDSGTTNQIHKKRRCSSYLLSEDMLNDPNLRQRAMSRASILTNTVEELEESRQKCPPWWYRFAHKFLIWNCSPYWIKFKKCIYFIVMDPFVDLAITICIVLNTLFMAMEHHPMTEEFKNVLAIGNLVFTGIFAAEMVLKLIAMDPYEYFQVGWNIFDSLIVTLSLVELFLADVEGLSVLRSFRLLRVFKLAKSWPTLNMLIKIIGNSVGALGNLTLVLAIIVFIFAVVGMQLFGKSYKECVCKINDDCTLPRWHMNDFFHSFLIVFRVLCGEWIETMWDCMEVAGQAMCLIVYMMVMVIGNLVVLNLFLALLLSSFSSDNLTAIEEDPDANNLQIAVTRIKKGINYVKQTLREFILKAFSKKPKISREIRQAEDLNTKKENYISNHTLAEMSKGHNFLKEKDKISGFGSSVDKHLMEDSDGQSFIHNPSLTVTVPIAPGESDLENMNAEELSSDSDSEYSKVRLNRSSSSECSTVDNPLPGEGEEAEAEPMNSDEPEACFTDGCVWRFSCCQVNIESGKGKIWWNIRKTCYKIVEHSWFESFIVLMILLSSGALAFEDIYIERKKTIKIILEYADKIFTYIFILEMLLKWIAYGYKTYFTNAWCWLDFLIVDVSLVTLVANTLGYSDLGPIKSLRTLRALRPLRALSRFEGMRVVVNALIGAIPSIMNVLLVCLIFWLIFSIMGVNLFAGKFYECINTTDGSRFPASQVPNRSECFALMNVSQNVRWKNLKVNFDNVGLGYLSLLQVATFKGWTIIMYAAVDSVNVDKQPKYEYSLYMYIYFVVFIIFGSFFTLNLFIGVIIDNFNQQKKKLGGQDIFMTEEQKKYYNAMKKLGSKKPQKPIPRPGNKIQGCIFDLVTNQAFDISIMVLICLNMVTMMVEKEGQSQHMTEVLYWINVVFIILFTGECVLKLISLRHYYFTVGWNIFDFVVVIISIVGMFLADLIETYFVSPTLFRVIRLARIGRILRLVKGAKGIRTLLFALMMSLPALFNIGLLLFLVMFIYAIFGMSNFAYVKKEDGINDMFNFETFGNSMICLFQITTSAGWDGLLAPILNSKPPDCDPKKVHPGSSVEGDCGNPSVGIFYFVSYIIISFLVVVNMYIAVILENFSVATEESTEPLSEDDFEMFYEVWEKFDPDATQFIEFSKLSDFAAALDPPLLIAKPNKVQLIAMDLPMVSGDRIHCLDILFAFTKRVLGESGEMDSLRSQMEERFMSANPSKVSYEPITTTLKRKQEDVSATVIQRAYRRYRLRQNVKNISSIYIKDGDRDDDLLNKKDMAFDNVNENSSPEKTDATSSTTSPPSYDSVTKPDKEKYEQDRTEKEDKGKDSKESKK
Format: cell-based
In short: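 Cells expressing full-length channel, exposed to drug by integrated pipetting on automated patch-clamp platforms or by microperfusion in conventional whole-cell patch clamp. Channels activated by a voltage protocol depolarising from a defined holding potential; buffers per platform manufacturer.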
Compound `O=C(N[C@@H]1COc2cccc(-c3cccnc3)c2C1)c1ccc(C(=O)NCCC(F)(F)F)nc1` [Example 132, N^5-[(3S)-5-pyridin-3-yl-3,4-dihydro-2H-chromen-3-yl]-N^2-(3,3,3-trifluoropropyl)pyridine-2,5-dicarboxamide] has an IC50 of 0.0794 µM.
Work on `O=C(N[C@@H]1COc2cccc(-c3cccnc3)c2C1)c1cnc(OC2CCOCC2)cn1` [Example 133, N-[(3S)-5-pyridin-3-yl-3,4-dihydro-2H-chromen-3-yl]-5-(tetrahydro-2H-pyran-4-yloxy)pyrazine-2-carboxamide] yielded an IC50 of 0.794 µM.
In the case of `COc1ccc(-c2cccc3c2C[C@H](NC(=O)c2ccc(OC4CCOCC4)nc2)CO3)cn1` [Example 134, N-[(3S)-5-(6-methoxypyridin-3-yl)-3,4-dihydro-2H-chromen-3-yl]-6-(tetrahydro-2H-pyran-4-yloxy)nicotinamide], the IC50 is reported as 0.316 µM.
`COc1ccc(-c2cccc3c2C[C@H](NC(=O)c2ccc(OC4CCCOC4)nc2)CO3)cn1` (stereo partly drawn) [Example 135, N-[(3S)-5-(6-methoxypyridin-3-yl)-3,4-dihydro-2H-chromen-3-yl]-6-(tetrahydro-2H-pyran-3-yloxy)nicotinamide] gave an IC50 of 0.316 µM.
Compound `O=C(N[C@@H]1COc2cccc(-c3ccncc3)c2C1)c1ccc(OC2CCCOC2)nc1` (stereo partly drawn) [Example 136, N-[(3S)-5-pyridin-4-yl-3,4-dihydro-2H-chromen-3-yl]-6-(tetrahydro-2H-pyran-3-yloxy)nicotinamide] has an IC50 of 0.316 µM.
`COCCOc1ccc(C(=O)N[C@@H]2COc3cccc(-c4cccnc4)c3C2)cn1` [Example 137, 6-(2-methoxyethoxy)-N-[(3S)-5-pyridin-3-yl-3,4-dihydro-2H-chromen-3-yl]nicotinamide] showed an IC50 of 0.794 µM.
`COCCn1nc(C)c(C(=O)N[C@@H]2COc3cccc(-c4cccnc4)c3C2)n1` [Example 138, 2-(2-methoxyethyl)-5-methyl-N-[(3S)-5-pyridin-3-yl-3,4-dihydro-2H-chromen-3-yl]-2H-1,2,3-triazole-4-carboxamide] was tested, and the IC50 was 3.16 µM.
Work on `O=C(N[C@@H]1COc2cccc(-c3cccnc3)c2C1)c1ccc(OCC2CCO2)nc1` (stereo partly drawn) [Example 139, 6-(oxetan-2-ylmethoxy)-N-[(3S)-5-pyridin-3-yl-3,4-dihydro-2H-chromen-3-yl]nicotinamide] yielded an IC50 of 1.58 µM.
With `COCCOc1ccc(C(=O)N[C@@H]2COc3cccc(-c4ccnc(OC)c4)c3C2)cn1` [Example 140, 6-(2-methoxyethoxy)-N-[(3S)-5-(2-methoxypyridin-4-yl)-3,4-dihydro-2H-chromen-3-yl]nicotinamide] the IC50 was 0.631 µM.
`COCCOc1ccc(C(=O)N[C@@H]2COc3cccc(-c4cnc(C)nc4)c3C2)cn1` [Example 141, 6-(2-methoxyethoxy)-N-[(3S)-5-(2-methylpyrimidin-5-yl)-3,4-dihydro-2H-chromen-3-yl]nicotinamide] showed an IC50 of 3.98 µM.
Work on `COCCOc1ccc(C(=O)N[C@@H]2COc3cccc(-c4ccncc4C)c3C2)cn1` [Example 142, 6-(2-methoxyethoxy)-N-[(3S)-5-(3-methylpyridin-4-yl)-3,4-dihydro-2H-chromen-3-yl]nicotinamide] yielded an IC50 of 3.16 µM.
With `COCCOc1ccc(C(=O)N[C@@H]2COc3cccc(-c4ccc(F)nc4)c3C2)cn1` [Example 143, N-[(3S)-5-(6-fluoropyridin-3-yl)-3,4-dihydro-2H-chromen-3-yl]-6-(2-methoxyethoxy)nicotinamide] the IC50 was 1.58 µM.
`COCCOc1ccc(C(=O)N[C@@H]2CCc3cccc(-c4cccnc4F)c3C2)cn1` [Example 144, N-[(2R)-8-(2-fluoropyridin-3-yl)-1,2,3,4-tetrahydronaphthalen-2-yl]-6-(2-methoxyethoxy)nicotinamide] gave an IC50 of 3.16 µM.
Compound `O=C(N[C@@H]1CCc2cccc(-c3cccnc3F)c2C1)c1ccc(OC2CCOCC2)nc1` [Example 145, N-[(2R)-8-(2-fluoropyridin-3-yl)-1,2,3,4-tetrahydronaphthalen-2-yl]-6-(tetrahydro-2H-pyran-4-yloxy)nicotinamide] has an IC50 of 0.2 µM.
In the case of `O=C(N[C@@H]1CCc2cccc(-c3ccnnc3)c2C1)c1ccc(OC2CCCOC2)nc1` (stereo partly drawn) [Example 146, N-[(2R)-8-pyridazin-4-yl-1,2,3,4-tetrahydronaphthalen-2-yl]-6-(tetrahydro-2H-pyran-3-yloxy)nicotinamide], the IC50 is reported as 7.94 µM.
For `Cc1ccc(-c2cccc3c2C[C@H](NC(=O)c2cnc(OC4CCCOC4)nc2)CC3)cn1` (stereo partly drawn) [Example 147, N-[(2R)-8-(6-methylpyridin-3-yl)-1,2,3,4-tetrahydronaphthalen-2-yl]-2-(tetrahydro-2H-pyran-3-yloxy)pyrimidine-5-carboxamide], the IC50 was 1.58 µM.
Compound `CCCCn1ccc(C(=O)N[C@@H]2COc3cccc(-c4cnc(OC)c(F)c4)c3C2)cc1=O` [Example 148, 1-butyl-N-[(3S)-5-(5-fluoro-6-methoxypyridin-3-yl)-3,4-dihydro-2H-chromen-3-yl]-2-oxo-1,2-dihydropyridine-4-carboxamide] has an IC50 of 0.794 µM.
With `COc1ncc(-c2cccc3c2C[C@H](NC(=O)c2cnc(OC4CCOC4)nc2)CO3)cc1F` (stereo partly drawn) [Example 149, N-[(3S)-5-(5-fluoro-6-methoxypyridin-3-yl)-3,4-dihydro-2H-chromen-3-yl]-2-(tetrahydrofuran-3-yloxy)pyrimidine-5-carboxamide] the IC50 was 6.31 µM.
Compound `CCCCn1ccc(C(=O)N[C@@H]2COc3cccc(-c4cnc(OC)nc4)c3C2)cc1=O` [Example 150, 1-butyl-N-[(3S)-5-(2-methoxypyrimidin-5-yl)-3,4-dihydro-2H-chromen-3-yl]-2-oxo-1,2-dihydropyridine-4-carboxamide] has an IC50 of 1 µM.
Compound `Cc1cc(-c2cccc3c2C[C@H](NC(=O)c2ccc(OC4CCCOC4)nc2)CO3)cnc1F` (stereo partly drawn) [Example 151, N-[(3S)-5-(6-fluoro-5-methylpyridin-3-yl)-3,4-dihydro-2H-chromen-3-yl]-6-(tetrahydro-2H-pyran-3-yloxy)nicotinamide] has an IC50 of 0.251 µM.
`CCCCn1ccc(C(=O)N[C@@H]2COc3cccc(-c4cnc(F)c(C)c4)c3C2)cc1=O` [Example 152, 1-butyl-N-[(3S)-5-(6-fluoro-5-methylpyridin-3-yl)-3,4-dihydro-2H-chromen-3-yl]-2-oxo-1,2-dihydropyridine-4-carboxamide] gave an IC50 of 1.26 µM.
For `Cc1cc(-c2cccc3c2C[C@H](NC(=O)c2cnc(OC4CCCOC4)nc2)CO3)cnc1F` (stereo partly drawn) [Example 153, N-[(3S)-5-(6-fluoro-5-methylpyridin-3-yl)-3,4-dihydro-2H-chromen-3-yl]-2-(tetrahydro-2H-pyran-3-yloxy)pyrimidine-5-carboxamide], the IC50 was 0.631 µM.
Compound `COc1ncc(-c2cccc3c2C[C@@H](NC(=O)c2ccc(OC4CCOCC4)nc2)CC3)cn1` [Example 154, N-[(2S)-8-(2-methoxypyrimidin-5-yl)-1,2,3,4-tetrahydronaphthalen-2-yl]-6-(tetrahydro-2H-pyran-4-yloxy)nicotinamide] has an IC50 of 6.31 µM.
`Cc1ncc(-c2cccc3c2C[C@H](NC(=O)c2ccc(OC4CCOCC4)nc2)CO3)cn1` [Example 155, N-[(3S)-5-(2-methylpyrimidin-5-yl)-3,4-dihydro-2H-chromen-3-yl]-6-(tetrahydro-2H-pyran-4-yloxy)nicotinamide] was tested, and the IC50 was 1.26 µM.
`COc1ncc(-c2cccc3c2C[C@H](NC(=O)c2ccc(OC4CCOCC4)nc2)CC3)cn1` [Example 156, N-[(2R)-8-(2-methoxypyrimidin-5-yl)-1,2,3,4-tetrahydronaphthalen-2-yl]-6-(tetrahydro-2H-pyran-4-yloxy)nicotinamide] was tested, and the IC50 was 2 µM.
With `COc1ncc(-c2cccc3c2C[C@H](NC(=O)c2ccc(OC4CCCOC4)nc2)CO3)cn1` (stereo partly drawn) [Example 157, N-[(3S)-5-(2-methoxypyrimidin-5-yl)-3,4-dihydro-2H-chromen-3-yl]-6-(tetrahydro-2H-pyran-3-yloxy)nicotinamide] the IC50 was 1 µM.
Compound `COc1ncc(-c2cccc3c2C[C@H](NC(=O)c2ccc(OC4CCOC4)nc2)CO3)cn1` (stereo partly drawn) [Example 158, N-[(3S)-5-(2-methoxypyrimidin-5-yl)-3,4-dihydro-2H-chromen-3-yl]-6-(tetrahydrofuran-3-yloxy)nicotinamide] has an IC50 of 3.98 µM.
`Cc1ncc(-c2cccc3c2C[C@H](NC(=O)c2ccc(OC4CCOC4)nc2)CC3)cn1` (stereo partly drawn) [Example 159, N-[(2R)-8-(2-methylpyrimidin-5-yl)-1,2,3,4-tetrahydronaphthalen-2-yl]-6-(tetrahydrofuran-3-yloxy)nicotinamide] gave an IC50 of 6.31 µM.
`Cc1ncc(-c2cccc3c2C[C@H](NC(=O)c2ccc(OC4CCCOC4)nc2)CC3)cn1` (stereo partly drawn) [Example 160, N-[(2R)-8-(2-methylpyrimidin-5-yl)-1,2,3,4-tetrahydronaphthalen-2-yl]-6-(tetrahydro-2H-pyran-3-yloxy)nicotinamide] showed an IC50 of 3.16 µM.
Work on `Cc1ncc(-c2cccc3c2C[C@H](NC(=O)c2ccc(OCC4CCCO4)nc2)CC3)cn1` (stereo partly drawn) [Example 161, N-[(2R)-8-(2-methylpyrimidin-5-yl)-1,2,3,4-tetrahydronaphthalen-2-yl]-6-(tetrahydrofuran-2-ylmethoxy)nicotinamide] yielded an IC50 of 7.94 µM.
With `COc1ncc(-c2cccc3c2C[C@H](NC(=O)c2ccc(OCCOCC(F)(F)F)nc2)CC3)cn1` [Example 162, N-[(2R)-8-(2-methoxypyrimidin-5-yl)-1,2,3,4-tetrahydronaphthalen-2-yl]-6-[2-(2,2,2-trifluoroethoxy)ethoxy]nicotinamide] the IC50 was 0.501 µM.
For `COc1ncc(-c2cccc3c2C[C@H](NC(=O)c2ccc(OCCOCC(F)(F)F)nc2)CO3)cn1` [Example 163, N-[(3S)-5-(2-methoxypyrimidin-5-yl)-3,4-dihydro-2H-chromen-3-yl]-6-[2-(2,2,2-trifluoroethoxy)ethoxy]nicotinamide], the IC50 was 0.0398 µM.
For `O=C(N[C@@H]1CCc2cccc(-c3cccnc3F)c2C1)c1ccc(OCC2COCCO2)nc1` (stereo partly drawn) [Example 164, 6-(1,4-dioxan-2-ylmethoxy)-N-[(2R)-8-(2-fluoropyridin-3-yl)-1,2,3,4-tetrahydronaphthalen-2-yl]nicotinamide], the IC50 was 1 µM.
`COc1cc(-c2cccc3c2C[C@H](NC(=O)c2ccc(OCC4COCCO4)nc2)CO3)ccn1` (stereo partly drawn) [Example 165, 6-(1,4-dioxan-2-ylmethoxy)-N-[(3S)-5-(2-methoxypyridin-4-yl)-3,4-dihydro-2H-chromen-3-yl]nicotinamide] gave an IC50 of 0.158 µM.
